The values below come from US10457655B2, “Compounds and compositions for inhibition of FASN” (FORMA Therapeutics, Inc., priority 2013, dated 2019).

A word on the IC50: it is the midpoint of a concentration-inhibition curve. A low value points to higher potency.

The target of one assay is FASN enzyme (Homo sapiens, UniProt P49327). Nature of the assay: Enzymatic Assay for FASN Inhibitors. The class given is biochemical.
Sequence of FASN enzyme (P49327 whole entry): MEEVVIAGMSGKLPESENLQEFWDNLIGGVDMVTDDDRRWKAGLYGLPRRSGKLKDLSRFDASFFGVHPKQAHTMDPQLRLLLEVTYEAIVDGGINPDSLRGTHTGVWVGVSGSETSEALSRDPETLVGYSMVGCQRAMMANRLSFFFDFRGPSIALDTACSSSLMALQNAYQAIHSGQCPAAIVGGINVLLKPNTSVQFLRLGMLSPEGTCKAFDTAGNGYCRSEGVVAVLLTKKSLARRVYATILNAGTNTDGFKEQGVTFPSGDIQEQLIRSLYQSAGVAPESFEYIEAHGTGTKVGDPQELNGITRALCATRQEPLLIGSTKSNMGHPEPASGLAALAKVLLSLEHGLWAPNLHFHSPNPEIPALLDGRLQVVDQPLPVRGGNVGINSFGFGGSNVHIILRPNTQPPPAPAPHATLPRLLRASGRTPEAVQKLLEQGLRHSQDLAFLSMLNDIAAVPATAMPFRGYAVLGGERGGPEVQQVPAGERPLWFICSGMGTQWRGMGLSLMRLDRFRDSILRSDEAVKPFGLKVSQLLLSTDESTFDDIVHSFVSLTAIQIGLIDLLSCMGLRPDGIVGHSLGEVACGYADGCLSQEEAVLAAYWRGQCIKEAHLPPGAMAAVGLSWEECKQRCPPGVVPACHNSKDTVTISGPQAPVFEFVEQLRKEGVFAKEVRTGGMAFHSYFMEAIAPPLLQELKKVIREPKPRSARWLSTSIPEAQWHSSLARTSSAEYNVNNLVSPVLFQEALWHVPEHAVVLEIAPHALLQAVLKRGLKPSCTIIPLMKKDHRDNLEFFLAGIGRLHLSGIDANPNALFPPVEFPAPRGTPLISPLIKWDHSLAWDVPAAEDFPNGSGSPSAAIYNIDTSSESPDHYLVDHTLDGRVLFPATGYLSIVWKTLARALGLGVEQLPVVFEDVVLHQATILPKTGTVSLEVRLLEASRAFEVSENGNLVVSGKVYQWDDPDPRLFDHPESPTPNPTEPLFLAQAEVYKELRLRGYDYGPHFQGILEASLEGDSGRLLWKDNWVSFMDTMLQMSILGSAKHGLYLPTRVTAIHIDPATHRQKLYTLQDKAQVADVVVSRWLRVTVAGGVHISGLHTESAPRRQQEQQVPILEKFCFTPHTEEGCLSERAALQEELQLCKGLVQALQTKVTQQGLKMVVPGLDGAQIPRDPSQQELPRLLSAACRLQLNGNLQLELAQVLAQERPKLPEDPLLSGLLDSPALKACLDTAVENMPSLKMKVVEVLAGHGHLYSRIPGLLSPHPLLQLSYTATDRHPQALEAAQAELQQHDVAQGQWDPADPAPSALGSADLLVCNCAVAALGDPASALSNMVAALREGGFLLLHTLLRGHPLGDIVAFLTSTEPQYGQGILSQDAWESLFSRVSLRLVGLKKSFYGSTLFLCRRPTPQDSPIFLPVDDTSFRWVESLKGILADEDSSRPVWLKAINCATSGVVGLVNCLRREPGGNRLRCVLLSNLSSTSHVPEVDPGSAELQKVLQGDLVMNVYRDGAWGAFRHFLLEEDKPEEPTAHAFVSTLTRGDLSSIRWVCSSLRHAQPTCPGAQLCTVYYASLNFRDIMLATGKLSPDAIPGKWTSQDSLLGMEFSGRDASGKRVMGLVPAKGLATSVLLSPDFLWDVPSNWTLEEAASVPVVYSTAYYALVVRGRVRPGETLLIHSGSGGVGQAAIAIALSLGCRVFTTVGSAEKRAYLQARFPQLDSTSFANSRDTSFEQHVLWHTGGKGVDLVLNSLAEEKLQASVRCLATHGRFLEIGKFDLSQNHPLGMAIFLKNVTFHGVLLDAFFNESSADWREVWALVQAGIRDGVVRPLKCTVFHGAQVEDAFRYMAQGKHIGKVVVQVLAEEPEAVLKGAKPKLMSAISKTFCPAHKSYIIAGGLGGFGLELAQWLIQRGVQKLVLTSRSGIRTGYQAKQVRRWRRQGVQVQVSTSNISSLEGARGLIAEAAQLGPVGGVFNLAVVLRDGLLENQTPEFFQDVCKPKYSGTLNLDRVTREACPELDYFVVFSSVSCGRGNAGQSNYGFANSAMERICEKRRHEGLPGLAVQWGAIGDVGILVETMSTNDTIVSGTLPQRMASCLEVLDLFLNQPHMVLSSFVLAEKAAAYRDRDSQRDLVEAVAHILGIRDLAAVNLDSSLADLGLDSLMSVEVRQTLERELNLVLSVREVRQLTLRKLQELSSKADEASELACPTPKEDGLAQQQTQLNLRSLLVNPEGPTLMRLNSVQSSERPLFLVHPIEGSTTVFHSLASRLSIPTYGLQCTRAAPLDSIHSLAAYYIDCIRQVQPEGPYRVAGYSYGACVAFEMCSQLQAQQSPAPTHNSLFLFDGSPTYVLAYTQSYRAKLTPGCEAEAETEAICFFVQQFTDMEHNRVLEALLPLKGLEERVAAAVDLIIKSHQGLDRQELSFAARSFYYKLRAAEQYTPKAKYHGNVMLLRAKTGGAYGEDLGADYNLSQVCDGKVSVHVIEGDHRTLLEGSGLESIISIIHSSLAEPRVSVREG
Conditions: not given
How it is done:
Assays were performed in a 384-well black plate to measure the inhibition of FASN activities by individual compounds herein disclosed. An aliquot of 250 nL of compound was incubated with 10 μL of 40 nM FASN enzyme in assay buffer (50 mM HEPES pH=7.3, 0.5 mM EDTA, 1 mM Ascorbate, 100 mM NaCl and 0.04% TritonX-100) in each well at 25° C. for 60 minutes. After the plate was centrifuged briefly, 10 μL of substrate mix (20 μM Acetyl-CoA, 60 μM Malonyl-CoA, and 100 μM NADPH in assay buffer) was added to each well. The reaction was maintained at 25° C. for 90 minutes. The reaction was then quenched by adding 10 μL of 90 μM 7-Diethylamino-3-(4′-Maleimidylpheynyl)-4-Methylcoumarin in 50/50 Ethanol/H2O solution. The assay plate was incubated at 25° C. for 15 minutes, and read on a plate reader with excitation and emission wavelength at 360 nm and 530 nm, respectively. The IC50 of a given compound was calculated by fitting the dose response curve with a four parameter logistic equation.
As to `CC1Cc2ccccc2CN1c1ccc(C(=O)N2CCN(C(=O)C3(O)CC3)CC2)cc1` (stereo not drawn) [1-{4-[4-(3-methyl-1,2,3,4-tetrahydroisoquinolin-2-yl)benzoyl]piperazine-1-carbonyl}cyclopropan-1-ol], the IC50 was below 0.5 µM.
Same read-out and setting: for `C[C@@H]1CN(C(=O)C2(O)CC2)C[C@H](C)N1C(=O)c1ccc(-c2ccc3c(c2)ncn3C)cc1` the value was below 0.5 µM.
Regarding `O=C(c1ccc(-c2ccc3ncccc3c2)c(F)c1)N1CCN(C(=O)C2(O)CC2)CC1` [1-[(4-{[3-fluoro-4-(quinolin-6-yl)phenyl]carbonyl}piperazin-1-yl)carbonyl]cyclopropan-1-ol], the IC50 was below 0.5 µM.
On the same count and under the same terms, for `O=C(c1ccc(-c2ccc3ncn(CCO)c3c2)cc1)N1CCN(C(=O)C2(O)CC2)CC1` [1-(4-{4-[1-(2-hydroxyethyl)-1H-1,3-benzodiazol-6-yl]benzoyl}piperazine-1-carbonyl)cyclopropan-1-ol] the value was below 0.5 µM; for `Cn1cnc2cc(-c3ccc(C(=O)N4CCN(C(=O)C5(O)CC5)CC4)c(F)c3)ccc21` [1-{4-[2-fluoro-4-(1-methyl-1H-1,3-benzodiazol-5-yl)benzoyl]piperazine-1-carbonyl}cyclopropan-1-ol], below 0.5 µM.
Same read-out and setting: for `Cc1n[nH]c2c(-c3ccc(C(=O)N4CCN(C(=O)C5(O)CC5)CC4)c(F)c3)cccc12` [1-{4-[2-fluoro-4-(3-methyl-1H-indazol-7-yl)benzoyl]piperazine-1-carbonyl}cyclopropan-1-ol] the value was below 0.5 µM; for `Cc1nn(C)c2ccc(-c3ccc(C(=O)N4CCN(C(=O)C5(O)CC5)CC4)c(F)c3)cc12` [1-{4-[4-(1,3-dimethyl-1H-indazol-5-yl)-2-fluorobenzoyl]piperazine-1-carbonyl}cyclopropan-1-ol], below 0.5 µM.
On the same count and under the same terms, to `O=C(Nc1cccc(-c2ccc(C(=O)N3CCN(C(=O)C4(O)CC4)CC3)cc2)c1)C1CCCC1` [N-(3-{4-[4-(1-hydroxycyclopropanecarbonyl)piperazine-1-carbonyl]phenyl}phenyl)cyclopentanecarboxamide] belongs below 0.5 µM.
Turning to `Cc1n[nH]c2c(-c3ccc(C(=O)N4CCN(C(=O)C5(O)CC5)CC4)cc3)cccc12` [1-{4-[4-(3-methyl-1H-indazol-7-yl)benzoyl]piperazine-1-carbonyl}cyclopropan-1-ol], the IC50 is below 0.5 µM.
As for `Cc1n[nH]c2cccc(-c3ccc(C(=O)N4CCN(C(=O)C5(O)CC5)CC4)cc3)c12` [1-{4-[4-(3-methyl-1H-indazol-4-yl)benzoyl]piperazine-1-carbonyl}cyclopropan-1-ol], the IC50 was below 0.5 µM.
On to `CC1(c2cccc(-c3ccc(C(=O)N4CCN(C(=O)C5(O)CC5)CC4)cc3)c2)NC(=O)NC1=O` (stereo not drawn), for which the IC50 is below 0.5 µM.
Still for that read-out and setting: for `Cc1nn(C)c2ccc(-c3ccc(C(=O)N4CCN(C(=O)C5(O)CC5)[C@@H](C)C4)cc3)cc12` [1-[(2S)-4-[4-(1,3-dimethyl-1H-indazol-5-yl)benzoyl]-2-methylpiperazine-1-carbonyl]cyclopropan-1-ol] the value was below 0.5 µM; for `Cn1cnc2cc(-c3ccc(C(=O)N4CCN(C(=O)C5(N)CC5)CC4)c(F)c3)ccc21` [1-{4-[2-fluoro-4-(1-methyl-1H-1,3-benzodiazol-5-yl)benzoyl]piperazine-1-carbonyl}cyclopropan-1-amine], below 0.5 µM.
Same read-out and setting: to `O=C(c1ccc(-c2cccc(OC3CC3)c2)cc1)N1CCN(C(=O)C2(O)CC2)CC1` belongs below 0.5 µM.
Compound `O=C(c1ccc(-c2cccc(NS(=O)(=O)C3CCC3)c2)cc1)N1CCN(C(=O)C2(O)CC2)CC1` [N-(3-{4-[4-(1-hydroxycyclopropanecarbonyl)piperazine-1-carbonyl]phenyl}phenyl)cyclobutanesulfonamide] returned an IC50 below 0.5 µM.
Still for that read-out and setting: to `Cn1cnc2cc(-c3ccc(C(=O)N4CCN(C(=O)C5CCO5)CC4)cc3)ccc21` (stereo not drawn) [1-methyl-5-{4-[4-(oxetane-2-carbonyl)piperazine-1-carbonyl]phenyl}-1H-1,3-benzodiazole] belongs below 0.5 µM; to `Cn1cc2ccc(-c3ccc(C(=O)N4CCN(C(=O)C5(O)CC5)CC4)c(F)c3)cc2n1`, below 0.5 µM.
On the same count and under the same terms, to `O=C(c1ccc(-n2ncc3ccccc32)cc1)N1CCN(C(=O)C2(O)CC2)CC1` [1-{4-[4-(1H-indazol-1-yl)benzoyl]piperazine-1-carbonyl}cyclopropan-1-ol] belongs below 0.5 µM; to `O=C(c1ccc(-c2ccc3cc(F)ccc3n2)c(F)c1F)N1CCN(C(=O)C2(O)CC2)CC1` [1-[(4-{[2,3-difluoro-4-(6-fluoroquinolin-2-yl)phenyl]carbonyl}piperazin-1-yl)carbonyl]cyclopropan-1-ol], below 0.5 µM.
The same measure, in the same setting: to `NC(=O)c1cc2cc(-c3ccc(C(=O)N4CCN(C(=O)C5(O)CC5)CC4)cc3)ccc2[nH]1` [5-[4-({4-[(1-hydroxycyclopropyl)carbonyl]piperazin-1-yl}carbonyl)phenyl]-1H-indole-2-carboxamide] belongs below 0.5 µM; to `C[C@H]1CN(C(=O)c2ccc(-c3ccc(Cl)cc3F)cc2)CCN1C(=O)C1(O)CC1`, below 0.5 µM; to `Cc1n[nH]c2cc(-c3ccc(C(=O)N4CCN(C(=O)C5(O)CC5)CC4)cc3)ccc12` [1-{4-[4-(3-methyl-1H-indazol-6-yl)benzoyl]piperazine-1-carbonyl}cyclopropan-1-ol], below 0.5 µM.
Compound `O=C(c1ccc(-c2cc3[nH]nnc3cc2F)cc1)N1CCN(C(=O)C2(O)CC2)CC1` gave an IC50 below 0.5 µM.
In turn, `Cc1n[nH]c2cc(-c3ccc(C(=O)N4CCN(C(=O)C5(N)CC5)CC4)cc3)ccc12` [1-{4-[4-(3-methyl-1H-indazol-6-yl)benzoyl]piperazine-1-carbonyl}cyclopropan-1-amine] returned an IC50 below 0.5 µM.
Still for that read-out and setting: to `O=C(c1ccc(-c2nc3ccccn3c2Cl)c(F)c1)N1CCN(C(=O)C2(O)CC2)CC1` [1-[4-(4-{3-chloroimidazo[1,2-a]pyridin-2-yl}-3-fluorobenzoyl)piperazine-1-carbonyl]cyclopropan-1-ol] belongs below 0.5 µM; to `O=C(c1ccc(N2CCc3ccc(F)cc3C2)cc1)N1CCN(C(=O)C2(O)CC2)CC1`, below 0.5 µM.
Still for that read-out and setting: for `Cn1nnc2cc(-c3ccc(C(=O)N4CCN(C(=O)C5(O)CC5)CC4)cc3)c(F)cc21` [1-{4-[4-(6-fluoro-1-methyl-1H-1,2,3-benzotriazol-5-yl)benzoyl]piperazine-1-carbonyl}cyclopropan-1-ol] the value was below 0.5 µM; for `O=C(c1ccc(N2CCc3sccc3C2)cc1)N1CCN(C(=O)C2(O)CC2)CC1` [1-[4-(4-{4H,5H,6H,7H-thieno[3,2-c]pyridin-5-yl}benzoyl)piperazine-1-carbonyl]cyclopropan-1-ol], below 0.5 µM; for `Cn1ncc2ccc(-c3ccc(C(=O)N4CCN(C(=O)C5(N)CCC5)CC4)cc3)cc21` [1-{4-[4-(1-methyl-1H-indazol-6-yl)benzoyl]piperazine-1-carbonyl}cyclobutan-1-amine], below 0.5 µM.
Still for that read-out and setting: to `C[C@@H]1CN(C(=O)c2ccc(-c3ccc4c(c3)ncn4C)cc2)C[C@H](C)N1C(=O)C1(O)CC1` [1-[(2R,6S)-2,6-dimethyl-4-[4-(1-methyl-1H-1,3-benzodiazol-5-yl)benzoyl]piperazine-1-carbonyl]cyclopropan-1-ol] belongs below 0.5 µM.

Still in this assay, the particulars now being: FASN enzymatic assay; Table 2-2.
With `COc1ccc2nc(-c3ccc(C(=O)N4CCN(C(=O)C5(O)CC5)CC4)cc3)cn2c1` [1-({4-[(4-{6-methoxyimidazo[1,2-a]pyridin-2-yl}phenyl)carbonyl]piperazin-1-yl}carbonyl)cyclopropan-1-ol], the IC50 lay in the range of 0.5 to 5 µM.
As for `O=C(c1ccc(-c2nc3cc(F)ccc3[nH]2)cc1)N1CCN(C(=O)C2(O)CC2)CC1` [1-[(4-{[4-(5-fluoro-1H-1,3-benzodiazol-2-yl)phenyl]carbonyl}piperazin-1-yl)carbonyl]cyclopropan-1-ol], the IC50 lay within 0.5 to 5 µM.
The same measure, in the same setting: to `O=C(c1ccc(-c2ccc3nccn3c2)cc1)N1CCN(C(=O)C2(O)CC2)CC1` [1-({4-[(4-{imidazo[1,2-a]pyridin-6-yl}phenyl)carbonyl]piperazin-1-yl}carbonyl)cyclopropan-1-ol] belongs 0.5 to 5 µM.

Staying with this assay, now noted: FASN enzymatic assay; Table 2-3.
`O=C(c1ccc(-c2ccc(Cl)cc2F)nc1)N1CCN(C(=O)C2(O)CC2)CC1` [1-[(4-{[6-(4-chloro-2-fluorophenyl)pyridin-3-yl]carbonyl}piperazin-1-yl)carbonyl]cyclopropan-1-ol] had an IC50 of at least 5 µM.
Still for that read-out and setting: for `Cc1nc(-c2ccc3scnc3c2)sc1C(=O)N1CCN(C(=O)C2(O)CC2)CC1` [1-[(4-{[2-(1,3-benzothiazol-5-yl)-4-methyl-1,3-thiazol-5-yl]carbonyl}piperazin-1-yl)carbonyl]cyclopropan-1-ol] the value was at least 5 µM; for `Cn1ncc2cccc(-c3ccc(C(=O)N4CCN(C(=O)C5(O)CC5)CC4)cc3)c21` [1-[(4-{[4-(1-methyl-1H-indazol-7-yl)phenyl]carbonyl}piperazin-1-yl)carbonyl]cyclopropan-1-ol], at least 5 µM; for `COc1c(F)cccc1-c1ccc(C(=O)N2CCN(C(=O)C3(O)CC3)CC2)cc1` [1-[(4-{[4-(3-fluoro-2-methoxyphenyl)phenyl]carbonyl}piperazin-1-yl)carbonyl]cyclopropan-1-ol], at least 5 µM.
Compound `O=C(CO)N1CCN(C(=O)c2ccc(-c3ccccc3)cc2)CC1` [2-hydroxy-1-{4-[(4-phenylphenyl)carbonyl]piperazin-1-yl}ethan-1-one] registered an IC50 of at least 5 µM.
Regarding `O=C(c1ccc(-c2cc(CO)ccc2Cl)cc1)N1CCN(C(=O)C2(O)CC2)CC1` [1-{[4-({4-[2-chloro-5-(hydroxymethyl)phenyl]phenyl}carbonyl)piperazin-1-yl]carbonyl}cyclopropan-1-ol], the IC50 is at least 5 µM.
